We go through two molecules from patent publication US7682630B2, “Antitumor agent and process for producing the same” (priority 2003, dated 2010).

The nature of series [1]: Side effects / hematological toxicity in S-180 bearing mice. Format: in vivo. Particulars: 10 mg/kg iv. How it is done:
S-180 bearing mice with tumors of about 5-7 mm in diameter were used for this study. Full blood analysis was performed weekly for 4 weeks before and after 1, 2 and 3 weeks of iv injections of either doxorubicin, pirarubicin or their SMA micelle complexes as described above. Blood biochemistry including, alanine aminotransferase (ALT), aspartate aminotransferase (AST), lactic dehydrogenase (LDH) and total creatine phosphokinase (CPK) were measured at 36 hr after i.v. administration of either free drugs or SMA-micelle complexes.
At the same time, the heart, spleen, liver and kidney tissues were stained with hematoxylin-eosin (H&E staining) for determination of cytological tissue toxicity.

A short description of series [2]: Release of free drug from the dialysis bag. The format is physicochemical. To be noted: same dialysis setting. The procedure: It is of importance that large molecular weight polymeric drugs having apparent molecular size larger than 10.000, preferably more than 50 KDa such as SMA-anthracyclin micelles, to exert tumor seeking EPR-effect, and thereby ultimately releasing free drug. To verify the drug complexes of the present invention release free drug from the micelle or polymeric conjugate in vitro, 20 mg of SMA-doxorubicin conjugates or SMA-pirarubicin conjugates was dissolved in 5 ml H2O and placed in sealed dialysis bag (M. W cut off 1.000; Spectrapor, Spectrum Laboratories Inc. CA. USA.). The dialysis bag was submerged in 25 ml of H2O with adjusted pH either at 7.4 to resemble circulating blood or pH 5.5 for tumor tissue, using 0.01 M NaOH and 0.01 M HCl, and incubated at 37° C. for several days in the dark. […] The released pirarubicin or doxorubicin outside the dialysis bag was collected at pre-determined time and amount was quantified by absorbance at 480 nm.
When the outside solution was replaced by ethanol the release rate has increased tremendously indicating the disruption of the hydrophobic interaction in the complex between the anthracyclins and the styrene hydrophobic moiety of SMA. One can envisage this hydrophobic environment would be more close to the endosome after internalization of the polymeric micelle into cytoplasm of cancer cell by endocytosis. […]

As to `COc1cccc2c1C(=O)c1c(O)c3c(c(O)c1C2=O)CC(O)(C(=O)CO)CC3OC1CC(N)C(OC2CCCCO2)C(C)O1` (centres unmarked) [Free pirarubicin, pirarubicin], in series [1] (1 week), the Erythrocyte is 490.6 ± 144 ×10,000/mm^3, the Hemoglobin is recorded as 11.1 ± 0.9 g/dL, the Leucocyte is 2533 ± 108 /mm^3 and the “Survival Rate” value is 100%. Besides, the Thrombocyte in series [1] (1 week) is 67.7 ± 0.9 ×1,000/mm^3. In addition, in series [1] (2 week), the Erythrocyte is 876 ×10,000/mm^3, the Hemoglobin is on record as 12.1 g/dL, the Leucocyte is on record as 5000 /mm^3 and the “Survival Rate” value is 25%. Moreover, in series [1] (2 week), the Thrombocyte is on record as 130 ×1,000/mm^3. In addition, in series [1] (3 week), the Erythrocyte is listed as 916 ×10,000/mm^3, the Hemoglobin was 15.7 g/dL, the Leucocyte is recorded as 4500 /mm^3 and the “Survival Rate” value stood at 25%. Moreover, in series [1] (3 week), the Thrombocyte is 143 ×1,000/mm^3. The “time for free drug to extravasate out of the dialysis tube” value in series [2] was “within a few hours”.
Turning to `COc1cccc2c1C(=O)c1c(O)c3c(c(O)c1C2=O)C[C@@](O)(C(=O)CO)C[C@@H]3O[C@H]1C[C@H](N)[C@H](O)[C@H](C)O1` [doxorubicin], the “time for free drug to extravasate out of the dialysis tube” value in series [2] is on record as “within a few hours”.
